BindingDB's records for doi:10.1016/j.bmc.2006.03.021 (Vernalis (R&D), 2006)

Target: T1, Serine/threonine-protein kinase Chk1 (Homo sapiens, UniProt O14757)
T1 sequence (O14757 whole entry): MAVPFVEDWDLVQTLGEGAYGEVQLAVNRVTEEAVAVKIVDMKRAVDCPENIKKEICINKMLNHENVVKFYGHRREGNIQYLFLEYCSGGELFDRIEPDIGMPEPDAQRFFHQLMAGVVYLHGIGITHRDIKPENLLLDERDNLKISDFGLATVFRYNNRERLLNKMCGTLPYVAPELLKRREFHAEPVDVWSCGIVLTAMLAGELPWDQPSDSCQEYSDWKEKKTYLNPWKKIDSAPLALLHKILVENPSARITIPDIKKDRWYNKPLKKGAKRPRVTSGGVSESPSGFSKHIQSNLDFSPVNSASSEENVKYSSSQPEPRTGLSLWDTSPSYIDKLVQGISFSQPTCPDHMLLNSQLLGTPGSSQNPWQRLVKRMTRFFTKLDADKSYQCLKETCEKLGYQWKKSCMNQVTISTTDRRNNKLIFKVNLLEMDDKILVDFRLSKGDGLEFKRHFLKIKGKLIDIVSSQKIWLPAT
Test: Chk1 Enzymatic Assay
Conditions: pH 7.5; 30 °C
Description: Chk1 kinase activity was assayed in reaction buffer containing substrate peptide, enzyme, and inhibitor in the presence of 100uM ATP/[gamma-33P] ATP. 33P incorporation was measured using a Perkin-Elmer Trilux scintillation counter. The IC50 is the inhibitor concentration, which inhibits 50% of kinase activity that catalyzes the transfer of the terminal phosphate from 33P labeled ATP to the substrate.

| Structure (SMILES) | IC50 [µM] |
| --- | --- |
| Cc1[nH]nc2c1C(c1ccc(O)c(O)c1)C(C#N)C(=N)O2 (stereo unspecified) [6-amino-4-(3,4-dihydroxyphenyl)-3-methyl-1H,4H-pyrano[2,3-c]pyrazole-5-carbonitrile] | 20.4 |
| COc1ccc(Cl)cc1-c1nnc(Nc2ccc(C(=O)O)cc2)s1 [4-{[5-(5-chloro-2-methoxyphenyl)-1,3,4-thiadiazol-2-yl]amino}benzoic acid] | 26.6 |
| NN1C(=O)C([c-]2c(=O)[nH]c3ccc([N+](=O)[O-])cc32)=[S+]C1=S [3-amino-5-[(3Z)-5-nitro-2-oxo-2,3-dihydro-1H-indol-3-ylidene]-2-sulfanylidene-1,3-thiazolidin-4-one] | 72.7 |
| Nc1ncnc2nc(SCC(=O)O)[nH]c12 [2-[(6-amino-9H-purin-8-yl)sulfanyl]acetic acid] | 31.8 |

Further compounds by falling IC50, results first:

| IC50 [µM] | Structure (SMILES) |
| --- | --- |
| 20.1 | Clc1cc2c(cc1CN=Nc1nnc3c(n1)[nH]c1ccccc13)OCO2 [(1E)-1-[(6-chloro-2H-1,3-benzodioxol-5-yl)methylidene]-2-{5H-[1,2,4]triazino[5,6-b]indol-3-yl}hydrazine] |
| 15.8 | NCCCNc1nc(F)c(Cl)c(C2c3ccccc3Sc3ccccc32)c1F [N-(3-aminopropyl)-5-chloro-3,6-difluoro-4-(9H-thioxanthen-9-yl)pyridin-2-amine] |
